Values of other authors, collected in patent US9895311B2, “Foam-forming compositions and methods for delivering an active to a body cavity” (Pharmiva AB, priority 2014, dated 2018).

Columns and labels:
several species = settings: even at low pH (Attassi, Servin 2010)
[1] = tested on: anaerobic bacteria involved in vaginal and urinary tube infections; settings: in 7 seconds, laboratory conditions (Block 1983)

OO [hydrogen peroxide]
Concentration required for inhibition (several species): ≥ 20 mM
log reduction [1]: 2 log
